In patent US20080022467A1, “Disazo dyes and their preparation and use” (ILFORD Imaging Switzerland GmbH, priority 2006, published 2008):

Experiments:
[1] = Light stability of printed patches (Weather-Ometer, xenon lamp); assay type: physicochemical; parameters: key to Light Stability (Class) on Recording Sheet A / Light Stability (Class) on Recording Sheet B / Light Stability (Class) on Recording Sheet C / Light Stability (Class) on Recording Sheet D / Light Stability (Class) on Recording Sheet E / Light Stability (Class) on Recording Sheet F / Light Stability (Class) on Recording Sheet G: A: excellent; B: good; C: satisfactory; D: unsatisfactory; conditions: for Light Stability (Class) on Recording Sheet A: A: HP Printing Paper HPP 1122 (paper), 20° C., 50% relative humidity; for Light Stability (Class) on Recording Sheet A / Light Stability (Class) on Recording Sheet B / Light Stability (Class) on Recording Sheet C / Light Stability (Class) on Recording Sheet D / Light Stability (Class) on Recording Sheet E / Light Stability (Class) on Recording Sheet F / Light Stability (Class) on Recording Sheet G: 20 megalux hours; for Light Stability (Class) on Recording Sheet B: B: HP Premium Plus (polymer based); for Light Stability (Class) on Recording Sheet C: C: ILFORD Galerie Smooth Glossy (nanoporous); for Light Stability (Class) on Recording Sheet D: D: ILFORD Printasia Premium Photo Glossy Paper (nanoporous); for Light Stability (Class) on Recording Sheet E: E: ILFORD Galerie Classic Gloss Paper (polymer based); for Light Stability (Class) on Recording Sheet F: F: EPSON Premium Glossy Photo Paper (nanoporous); for Light Stability (Class) on Recording Sheet G: G: CANON Photo Paper Pro PR-101 (nanoporous); for light stability on all recording sheets (in words): summary of Table 4
Experimental: (§1) The present invention, as far as it relates to recording liquids, is illustrated by the following examples using the disazo dyes of Table 1 according to the invention and dyes representing the state of the art. For each dye, 100 g of recording liquid were prepared by heating the necessary amount of dye (2.0 g-5.0 g), 6.0 g of ethylene glycol, 3.0 g of propylene-1,2-glycol, 3.0 g of 1-methyl-2-pyrrolidone, 0.3 g of an aqueous solution (50%) of Olin® 10G (available from Arch Chemicals Inc., Norwalk, USA), 0.3 g of Surfinol® 465 (available from Air Products and Chemicals Inc., Allentown, USA) and 0.1 g of Mergal® K 10N (available from Riedel-de-Haën, Seelze, Germany) together with water at a temperature of 50° C. under stirring for approximately 1 hour. The resulting solution was cooled down to a temperature of 20° C., its value of pH was adjusted to 7.5 and the solution was passed through a Millipore® filter of 0.3 μm pore diameter. The dye quantity was adjusted in such a way that the optical density of the printed image was similar for all dyes.
(§2) Homogeneously colored square patches with an approximate density of 1.40 were then printed, using these recording liquids, with an ink jet printer Canon BJC 8500 onto the following recording sheets: • A: HP Printing Paper HPP 1122 (paper) • B: HP Premium Plus (polymer based recording sheet) • C: ILFORD Galerie Smooth Glossy (nanoporous recording sheet) • D: ILFORD Printasia Premium Photo Glossy Paper (nanoporous recording sheet) • E: ILFORD Galerie Classic Gloss Paper (polymer based recording sheet) • F: EPSON Premium Glossy Photo Paper (nanoporous recording sheet) • G: CANON Photo Paper Pro PR-101 (nanoporous recording sheet)
The printed samples were irradiated using a Weather-Ometer® Ci35A (available from Atlas Material Testing Technology, Chicago, USA) with a 6500 W xenon lamp at a temperature of 20° C. and relative humidity of 50% until an illumination of 20 megalux hours was reached. The density loss was measured with a densitometer Spectrolino®. The percent density loss of initial density gives an indication of the light stability of the dyes on the printed recording sheet.

[2] = Stability against degradation by ozone of printed patches; assay type: physicochemical; parameters: key: A: excellent; B: good; C: satisfactory; D: unsatisfactory; conditions: ozone 1 ppm, 30° C., 50% relative humidity; for Resistance against Degradation by Ozone (Class) on Recording Sheet C: C: ILFORD Galerie Smooth Glossy (nanoporous); for Resistance against Degradation by Ozone (Class) on Recording Sheet D: D: ILFORD Printasia Premium Photo Glossy Paper (nanoporous); for Resistance against Degradation by Ozone (Class) on Recording Sheet F: F: EPSON Premium Glossy Photo Paper (nanoporous); for Resistance against Degradation by Ozone (Class) on Recording Sheet G: G: CANON Photo Paper Pro PR-101 (nanoporous)
Experimental: as §1, §2
The optical density of the colored square patches was measured with a Spectrolino® densitometer. Afterwards, the printed samples were stored for a predetermined time (for example 48 hours) in an ozone chamber, model 903 (available from Satra/Hampden, Great Britain) at a temperature of 30° C., a relative humidity of the air of 50% and an ozone concentration of 1 ppm at a velocity of the circulating, ozone containing air of 13 mm/s. After storage, the samples were re-measured. The density differences of these two measurements, expressed as per cent of the initial density, are an indication of the amount of dye loss due to the exposure to ozone.

Row | Compound | Light Stability (Class) on Recording Sheet A [1] | Light Stability (Class) on Recording Sheet B [1] | Light Stability (Class) on Recording Sheet C [1] | Light Stability (Class) on Recording Sheet D [1] | Light Stability (Class) on Recording Sheet E [1] | Light Stability (Class) on Recording Sheet F [1] | Light Stability (Class) on Recording Sheet G [1] | Resistance against Degradation by Ozone (Class) on Recording Sheet C [2] | Resistance against Degradation by Ozone (Class) on Recording Sheet D [2] | Resistance against Degradation by Ozone (Class) on Recording Sheet F [2] | Resistance against Degradation by Ozone (Class) on Recording Sheet G [2] | light stability on all recording sheets (in words) [1]
1 | O=S(=O)([O-])CCCSc1nc(Nc2ccc(N=Nc3ccc4cc(S(=O)(=O)[O-])cc(S(=O)(=O)[O-])c4c3)cc2)nc(Nc2ccc(N=Nc3ccc4cc(S(=O)(=O)[O-])cc(S(=O)(=O)[O-])c4c3)cc2)n1.[Na+].[Na+].[Na+].[Na+].[Na+] [Dye No. 15] | B | A | B | B | B | B | B | B | A | A | A | –
2 | CN(CCS(=O)(=O)[O-])c1nc(Nc2ccc(N=Nc3cc(S(=O)(=O)[O-])c4cccc(S(=O)(=O)[O-])c4c3)cc2)nc(Nc2ccc(N=Nc3cc(S(=O)(=O)[O-])c4cccc(S(=O)(=O)[O-])c4c3)cc2)n1.[Na+].[Na+].[Na+].[Na+].[Na+] [Dye No. 14] | B | A | A | B | B | B | B | A | A | A | A | –
3 | Cc1cc(Nc2nc(NCCO)nc(Nc3ccc(/N=N/c4cc(S(=O)(=O)[O-])c5cccc(S(=O)(=O)[O-])c5c4)c(C)c3)n2)ccc1/N=N/c1cc(S(=O)(=O)[O-])c2cccc(S(=O)(=O)[O-])c2c1.[Na+].[Na+].[Na+].[Na+] [Dye No. II, Direct Yellow 86, reference compound] | B | D | B | B | B | A | A | A | B | A | A | satisfactory or even unsatisfactory light stability
4 | Direct Yellow 132 [Dye No. III, reference compound] | C | A | B | B | B | B | B | D | B | C | C | satisfactory or even unsatisfactory light stability
5 | O=S(=O)([O-])c1cc(/N=N/c2ccc(Nc3nc(NCCO)nc(Nc4ccc(/N=N/c5cc(S(=O)(=O)[O-])c6cccc(S(=O)(=O)[O-])c6c5)cc4)n3)cc2)cc2c(S(=O)(=O)[O-])cccc12.[Na+].[Na+].[Na+].[Na+] [Dye No. I, reference compound] | A | A | B | B | B | A | B | A | B | A | A | excellent or good light stability
6 | O=S(=O)([O-])CCNc1nc(Nc2ccc(N=Nc3ccc4cc(S(=O)(=O)[O-])cc(S(=O)(=O)[O-])c4c3)cc2)nc(Nc2ccc(N=Nc3ccc4cc(S(=O)(=O)[O-])cc(S(=O)(=O)[O-])c4c3)cc2)n1.[Na+].[Na+].[Na+].[Na+].[Na+] [Dye No. 16] | B | A | B | B | B | B | B | A | A | A | A | –
7 | O=S(=O)([O-])CCNc1nc(Nc2ccc(N=Nc3cc(S(=O)(=O)[O-])c4cccc(S(=O)(=O)[O-])c4c3)cc2)nc(Nc2ccc(N=Nc3cc(S(=O)(=O)[O-])c4cccc(S(=O)(=O)[O-])c4c3)cc2)n1.[Na+].[Na+].[Na+].[Na+].[Na+] [Dye No. 11] | B | A | A | B | B | A | A | A | A | A | A | –
8 | O=S(=O)([O-])CCCSc1nc(Nc2ccc(N=Nc3cc(S(=O)(=O)[O-])c4cccc(S(=O)(=O)[O-])c4c3)cc2)nc(Nc2ccc(N=Nc3cc(S(=O)(=O)[O-])c4cccc(S(=O)(=O)[O-])c4c3)cc2)n1.[Na+].[Na+].[Na+].[Na+].[Na+] [Dye No. 10] | B | A | A | B | B | B | B | A | A | A | A | –
9 | CN(CCS(=O)(=O)[O-])c1nc(Nc2ccc(N=Nc3ccc4cc(S(=O)(=O)[O-])cc(S(=O)(=O)[O-])c4c3)cc2)nc(Nc2ccc(N=Nc3ccc4cc(S(=O)(=O)[O-])cc(S(=O)(=O)[O-])c4c3)cc2)n1.[Na+].[Na+].[Na+].[Na+].[Na+] [Dye No. 17] | B | A | A | B | B | B | B | B | A | A | A | –
